In one data set the target is Protease (Human immunodeficiency virus 1, UniProt Q9YQ12). The data set is described as follows: Inhibition of HIV1 protease expressed in Escherichia coli using DABCYL-gamma-Abu-Ser-Gln-ASN-Tyr-Pro-Ile-Val-Gln-EDANS as substrate after 20 mins by fluorescence assay.
Data set [1] is described as follows: Intrinsic clearance in human liver microsomes after 30 mins by LC-MS/MS analysis. It counts as ADME. The settings on record: read-out: CLH. For orientation: Liver microsomes are a subcellular fraction often used to study metabolism.
Data set [2] is described as follows: Apparent permeability from apical to basolateral side in human Caco2 cells at 10 uM after 60 mins. Format: ADME, cell-based. The settings on record: Caco-2. In general terms: Caco-2 cells form a polarised layer with tight junctions and transporters.
The nature of data set [3]: Cytotoxicity against human MT4 cells after 5 days by XTT assay. It counts as cell-based. (In general: Tetrazolium dyes change colour on reduction, which living cells bring about.)
The test system of data set [4] is Human immunodeficiency virus. The data set is described as follows: Antiviral activity against HIV infected in human MT4 cells by XTT assay. It counts as functional, organism-based. Conditions: Human immunodeficiency virus 1, MT4.
Data set [5] can be described thus: Intrinsic clearance in human liver microsomes after 0.5 to 30 mins by LC-MS/MS analysis. It counts as ADME. Conditions: read-out: CLH.
The subject of data set [6] is Human immunodeficiency virus 1. The data set is described as follows: Antiviral activity against HIV1 RF infected in human MT2 cells after 4 to 7 days by ELISA. It counts as functional, organism-based. Conditions: Human immunodeficiency virus 1, RF.
A short description of data set [7]: Intrinsic clearance in human liver microsomes at 2 uM after 10 to 30 mins by LC-MS/MS analysis. It counts as ADME. The settings on record: read-out: CLH.
Data set [8] is described as follows: Apparent permeability from apical to basolateral side in human Caco2 cells at 10 uM after 30 to 120 mins. Format: ADME, cell-based. The settings on record: Caco-2.

Sequence of Protease (Q9YQ12 whole entry): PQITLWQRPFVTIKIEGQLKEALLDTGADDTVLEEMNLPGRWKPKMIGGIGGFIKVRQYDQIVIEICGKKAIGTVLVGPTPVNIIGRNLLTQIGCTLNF

By Ki is commonly meant a dissociation constant, usually derived from enzyme kinetics or from competition with a known ligand. Read a high Ki as a looser hold on the target. One may read the Papp A→B as how fast a substance crosses the layer from the apical side. The CC50 is the concentration at which the toxic effect on the cells reaches its halfway point. What is called EC50 is the concentration giving half of the maximal effect. `CNC(=O)[C@@H](NC(=O)[C@@](O)(CCCN(Cc1ccc(-c2ccccc2)cc1)NC(=O)[C@@H](NC(=O)OC)C(C)(C)C)Cc1ccccc1)C(C)(C)C` came in with a Ki at Protease of 0.0046 µM. Further, the microsomal CLint in [1] is > 300 µL/min/mg. The Papp A→B at 1 h, 10 µM in data set [2] was 21 ×10⁻⁶ cm/s. Moreover, the CC50 at 120 h in data set [3] is > 50 µM. The same compound displayed an EC50 in [4] of 1 µM.

`CNC(=O)[C@@H](NC(=O)[C@@](O)(CCCN(Cc1ccc(Br)cc1)NC(=O)[C@@H](NC(=O)OC)C(C)(C)C)Cc1ccccc1)C(C)C` yielded a Ki on Protease of 0.0027 µM. In [3], the CC50 at 120 h was > 10 µM.

With `CNC(=O)[C@H](C)NC(=O)[C@@](O)(CCCN(Cc1ccc(Br)cc1)NC(=O)[C@@H](NC(=O)OC)C(C)(C)C)Cc1ccccc1`, on Protease, the Ki was found to be 0.018 µM. Also, in [3], the CC50 at 120 h is > 10 µM. In data set [4], this compound came in with an EC50 of 2.6 µM.

Take `CNC(=O)[C@@H](NC(=O)[C@](O)(CCCN(Cc1ccc(Br)cc1)NC(=O)[C@@H](NC(=O)OC)C(C)(C)C)Cc1ccccc1)C(C)(C)C`: on Protease, the Ki is > 5 µM. The CC50 at 120 h in data set [3] is > 10 µM. For the same compound, the EC50 in [4] is > 10 µM.

`CNC(=O)[C@H](CC(C)C)NC(=O)[C@@](O)(CCCN(Cc1ccc(Br)cc1)NC(=O)[C@@H](NC(=O)OC)C(C)(C)C)Cc1ccccc1` returned a Ki on Protease of 0.065 µM. The CC50 at 120 h in [3] was > 10 µM. In addition, the EC50 in [4] was > 10 µM.

Compound `CNC(=O)[C@@H](NC(=O)[C@@](O)(CCCN(Cc1ccc(-c2ccc3c(c2)OCO3)cc1)NC(=O)[C@@H](NC(=O)OC)C(C)(C)C)Cc1ccccc1)C(C)(C)C` returned a Ki at Protease of 0.0048 µM. The cytotoxic concentration (CC50) at 120 h in [3] was > 50 µM. In data set [4], this compound yielded an EC50 of 1.2 µM.

With `CNC(=O)[C@@H](NC(=O)[C@@](O)(CCCN(Cc1ccc(-c2ccncc2)cc1)NC(=O)[C@@H](NC(=O)OC)C(C)(C)C)Cc1ccccc1)C(C)(C)C`, the Ki at Protease amounted to 0.0035 µM. Further, the microsomal CLint in data set [1] came out at 20 µL/min/mg. Besides, in data set [2], the Papp A→B at 1 h, 10 µM turned out to be 1.9 ×10⁻⁶ cm/s. For the same compound, in data set [3], the CC50 at 120 h was > 50 µM. This compound also gave an EC50 in data set [4] of 1.1 µM.

On Protease, `CNC(=O)[C@@H](NC(=O)[C@@](O)(CCCN(Cc1ccc(-c2ccccn2)cc1)NC(=O)[C@@H](NC(=O)OC)C(C)(C)C)Cc1ccccc1)C(C)(C)C` returned a Ki of 0.0063 µM. For the same compound, in [3], the CC50 at 120 h was > 50 µM. The compound further displayed an EC50 in [4] of 4.9 µM.

For `COC(=O)N[C@H](C(=O)NN(CCC[C@@](O)(Cc1ccccc1)C(=O)N[C@H]1c2ccccc2C[C@H]1O)Cc1ccc(-c2ccncc2)cc1)C(C)(C)C`, the EC50 in data set [4] stood at 0.17 µM.

Regarding `COC(=O)N[C@H](C(=O)N[C@@H](Cc1ccccc1)[C@@H](O)CN(Cc1ccc(-c2ccccn2)cc1)NC(=O)[C@@H](NC(=O)OC)C(C)(C)C)C(C)(C)C` [ATAZANAVIR], the microsomal CLint in data set [5] turned out to be 140 µL/min/mg. In [6], this compound had a concentration giving a half-maximal response (EC50) of 0.0039 µM. Moreover, the microsomal CLint at 2 µM in data set [7] was 90 µL/min/mg. For the same compound, the Papp A→B at 10 µM in data set [8] came out at 5.3 ×10⁻⁶ cm/s.

With `CNC(=O)[C@@H](NC(=O)[C@@](O)(CCCN(Cc1ccc(C#Cc2cccnc2)cc1)NC(=O)[C@@H](NC(=O)OC)C(C)(C)C)Cc1ccccc1)C(C)(C)C`, the affinity at Protease corresponds to a Ki of 0.0034 µM. Also, the microsomal CLint in data set [1] was > 300 µL/min/mg. The apparent permeability from apical to basolateral (Papp A→B) at 1 h, 10 µM in data set [2] turned out to be 6.1 ×10⁻⁶ cm/s. In data set [3], the CC50 at 120 h is > 50 µM. This compound gave an EC50 in data set [4] of 2.1 µM.

On to `CNC(=O)[C@@H](NC(=O)[C@@](O)(CCCN(Cc1ccc(Br)cc1)NC(=O)[C@@H](NC(=O)OC)C(C)(C)C)Cc1ccccc1)C(C)(C)C`, for which the affinity on Protease, expressed as Ki, was 0.0062 µM. The microsomal CLint in data set [1] was 180 µL/min/mg. For the same compound, in [2], the Papp A→B at 1 h, 10 µM came to 4.6 ×10⁻⁶ cm/s. For the same compound, in data set [3], the CC50 at 120 h is > 10 µM. In data set [4], this compound gave an EC50 of 2 µM.

With `CNC(=O)[C@@H](NC(=O)[C@@](O)(CCCN(Cc1ccc(-c2ccsc2)cc1)NC(=O)[C@@H](NC(=O)OC)C(C)(C)C)Cc1ccccc1)C(C)(C)C`, the affinity at Protease corresponds to a Ki of 0.0036 µM. The CC50 at 120 h in data set [3] was > 50 µM. Besides, it took 1 µM to reach a half-maximal effect in data set [4] (EC50).

Regarding `COC(=O)N[C@H](C(=O)NN(CCC[C@@](O)(Cc1ccccc1)C(=O)N[C@H](CO)C(C)(C)C)Cc1ccc(Br)cc1)C(C)(C)C`, the affinity at Protease, expressed as Ki, was 0.13 µM. Moreover, in [3], the CC50 at 120 h is > 10 µM. The EC50 in data set [4] was > 10 µM.

For `CNC(=O)[C@@H](NC(=O)[C@@](O)(CCCN(Cc1ccc(C#Cc2ccccn2)cc1)NC(=O)[C@@H](NC(=O)OC)C(C)(C)C)Cc1ccccc1)C(C)(C)C`, the affinity at Protease corresponds to a Ki of 0.007 µM. The CC50 at 120 h in data set [3] is > 50 µM. This compound also had an EC50 in data set [4] of 1.2 µM.

The compound `CNC(=O)[C@H](Cc1ccccc1)NC(=O)[C@@](O)(CCCN(Cc1ccc(Br)cc1)NC(=O)[C@@H](NC(=O)OC)C(C)(C)C)Cc1ccccc1` gave a Ki on Protease of 0.17 µM. Besides, in [3], the CC50 at 120 h was > 10 µM. This compound also had an EC50 in data set [4] of 8.2 µM.

Turning to `CNC(=O)[C@@H](NC(=O)[C@@](CCCN(Cc1ccc(Br)cc1)NC(=O)[C@@H](NC(=O)OC)C(C)(C)C)(Cc1ccccc1)O[Si](C)(C)C(C)(C)C)C(C)(C)C`, on Protease, the affinity corresponds to a Ki of 2.7 µM. Further, in data set [3], the CC50 at 120 h was > 10 µM. In addition, the EC50 in data set [4] is > 10 µM.

In turn, `CNC(=O)[C@@H](NC(=O)[C@@](O)(CCCN(Cc1ccc(C#Cc2ccncc2)cc1)NC(=O)[C@@H](NC(=O)OC)C(C)(C)C)Cc1ccccc1)C(C)(C)C` returned a Ki on Protease of 0.0066 µM. For the same compound, the CC50 at 120 h in data set [3] is > 50 µM. In addition, in [4], the EC50 worked out at 8.9 µM.

`CNC(=O)[C@@H](NC(=O)[C@@](O)(CCCN(Cc1ccc(-c2cccnc2)cc1)NC(=O)[C@@H](NC(=O)OC)C(C)(C)C)Cc1ccccc1)C(C)(C)C` returned a Ki on Protease of 0.0031 µM. Also, the microsomal CLint in [1] worked out at 63 µL/min/mg. The Papp A→B at 1 h, 10 µM in [2] was < 1 ×10⁻⁶ cm/s. Moreover, the CC50 at 120 h in data set [3] is > 50 µM. Moreover, a half-maximal effect in data set [4] (EC50) was put at 1 µM.

With `CNC(=O)[C@@H](NC(=O)[C@@](O)(CCCN(Cc1ccc(-c2nccs2)cc1)NC(=O)[C@@H](NC(=O)OC)C(C)(C)C)Cc1ccccc1)C(C)(C)C`, at Protease, the affinity, expressed as Ki, was 0.0035 µM. Besides, in [3], the CC50 at 120 h was > 50 µM. The EC50 in data set [4] was 3.7 µM.

For the origin of these results see ChEMBL document CHEMBL3217614, “HIV-1 protease inhibitors with a tertiary alcohol containing transition-state mimic and various P2 and P1 substituents” (Medchemcomm, 2011).
